According to patent publication US12617762B2, “Carboxy derivatives with antiinflamatory properties” (Sitryx Therapeutics Limited, priority 2019, dated 2026):
Read-outs that look alike come from different tables or passages of the source.

What was measured:
[1] = test system: NRF2 (nuclear factor erythroid 2-related factor 2); test: NRF2 +/-GSH activation assay (DiscoverX PathHunter NRF2 translocation kit, U2OS cells); assay type: cell-based; settings: for NRF2 activation +GSH Emax / NRF2 activation −GSH Emax / −GSH Emax: normalised to DMF high control
Outline: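 Activation is expressed as percent of plate DMF (high) versus no-DMF (low) controls, from luminescence after 6 h compound exposure at 37 °C of U2OS PathHunter cells. The +GSH condition used compound pre-incubated 30 min in 6 mM working GSH; −GSH cells received compound directly.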

[2] = Hepatocyte stability assay, mouse; assay type: in vitro ADME; settings: mouse, hepatocytes; for hepatocyte CLint at 10 μM: Hepatocyte stability Clint; for half-life at 10 μM: Hepatocyte stability T½
Outline: (§1)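 Thawed cryopreserved hepatocytes (viability >70%) at 0.5×10^6 cells/mL in Leibovitz buffer were preincubated at 37° C, then given 10 μM compound (0.1% DMSO) in duplicate. Samples at 0–60 min were quenched in acetonitrile and analysed by LC-MS/MS. Intrinsic clearance and half-life were derived from ln % remaining versus time.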

[3] = Hepatocyte stability assay, human; assay type: in vitro ADME; settings: human, hepatocytes; for hepatocyte CLint at 10 μM: Hepatocyte stability Clint; for half-life at 10 μM: Hepatocyte stability T½
Outline: as §1

[4] = test system: IL-6 cytokine output from THP-1s; test: THP-1 AlphaLISA IL-6 cytokine inhibition assay; assay type: cell-based; settings: Homo sapiens, LPS then nigericin
Protocol: The cytokine inhibition profiles of compounds of formula (I) were determined in a differentiated THP-1 cell assay. All assays were performed in RPMI-1640 growth medium (Gibco), supplemented with 10% fetal bovine serum (FBS; Gibco), 1% penicillin-streptomycin and 1% sodium pyruvate unless specified otherwise. The IL-1β cytokine inhibition assay was run in a background of differentiated THP-1 cells as described below. All reagents described were from Sigma-Aldrich unless specified otherwise. Compounds were prepared as 10 mM DMSO stocks.
THP-1 cells were expanded as a suspension up to 80% confluence in appropriate growth medium. Cells were harvested, suspended, and treated with an appropriate concentration of phorbol 12-myristate 13-acetate (PMA) over a 72 hr period (37° C./5% CO2).
Following 72 hrs of THP-1 cell incubation, cellular medium was removed and replaced with fresh growth media containing 1% of FBS. Working concentrations of compounds were prepared separately in 10% FBS treated growth medium and pre-incubated with the cells for 30 minutes (37° C./5% CO2). Following the 30 minute compound pre-incubation, THP-1s were treated with an appropriate concentration of LPS and the cells were subsequently incubated for a 24 hr period (37° C./5% CO2). An appropriate final concentration of Nigericin was then dispensed into the THP-1 plates and incubated for 1 hour (37° C./5% CO2) before THP-1 supernatants were harvested and collected in separate polypropylene 96-well holding plates.
Reagents from an IL-1β and IL-6 commercial kit (Perkin Elmer) were prepared and run according to the manufacturer's instructions. Subsequently, fluorescence signal detection in a microplate reader was measured (EnVision® Multilabel Reader, Perkin Elmer).
Percentage inhibition was calculated per cytokine by normalising the sample data to the high and low controls used within each plate (+/− LPS respectively).

[5] = test system: IL-1β cytokine output from THP-1s; test: THP-1 AlphaLISA IL-1β cytokine inhibition assay; assay type: cell-based; settings: for IC50: Homo sapiens
Outline: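 IL-1β release by AlphaLISA, expressed as % inhibition against +/− LPS controls on each plate. Differentiation: PMA, 72 h. Sequence: 30 min compound pre-treatment, LPS 24 h, Nigericin 1 h before supernatant harvest, all at 37° C./5% CO2.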

[6] = +GSH, 30 minute compound-GSH pre-incubation, read-out: NRF2 activation +GSH EC50
[7] = −GSH, U2OS PathHunter cells, 6 hours compound treatment, read-out: NRF2 activation −GSH EC50
[8] = THP-1, differentiated THP-1 cells
[9] = THP-1, differentiated THP-1 cells, LPS then nigericin
[10] = −GSH, Table 5 exo vs endo comparison, read-out: −GSH EC50
[11] = −GSH, Table 5 exo vs endo comparison
[12] = THP-1, Table 3, head to head comparison of exo vs endo double bond compounds

Row | SMILES | EC50 [1, 6] | NRF2 activation +GSH Emax ([1]; +GSH) | EC50 [1, 7] | NRF2 activation −GSH Emax ([1]; −GSH) | hepatocyte CLint at 10 μM [2] | half-life at 10 μM [2] | hepatocyte CLint at 10 μM [3] | half-life at 10 μM [3] | IC50 [4, 8] | IC50 [5, 9] | NRF2 activation, result in words ([1]; −GSH and/or +GSH) | EC50 [1, 10] | −GSH Emax [1, 11] | IC50 ([4]; differentiated THP-1 cells) | IC50 [5, 12] | IL-1β lowering, result in words ([5]; THP-1 IL-1β assay)
1 | C=C(Cc1nc(CCCCCCC)no1)C(=O)O [Example 6, 2-((3-heptyl-1,2,4-oxadiazol-5-yl)methyl)acrylic acid] | 29.1 µM | 170% | 22.9 µM | 190% | 185 µL/min/1e6 cells | 9 min | 38 µL/min/1e6 cells | 31 min | 26 µM | 24.7 µM | – | – | – | – | – | –
2 | C/C(=C\c1nc(C2(c3ccc(Br)cc3)CC2)no1)C(=O)O [Example 168] | > 100 µM | 16% | 1.4 µM | 69% | 393 µL/min/1e6 cells | 5 min | 69 µL/min/1e6 cells | 18 min | – | 33.6 µM | more potent in NRF2 (-GSH) than Example 50 | 1.4 µM | 69% | 51.2 µM | 33.6 µM | –
3 | C=C(Cc1nc(C2(c3ccc(C(F)(F)F)cc3)CC2)co1)C(=O)O [Example 103, 2-((4-(1-(4-(trifluoromethyl)phenyl)cyclopropyl)oxazol-2-yl)methyl)acrylic acid] | 42.7 µM | 190% | 40.5 µM | 306% | 94 µL/min/1e6 cells | 16 min | 43 µL/min/1e6 cells | 31 min | 19.7 µM | 14.4 µM | – | – | – | – | – | –
4 | C=C(Cc1ccc(CCCCCCCC)cn1)C(=O)O [Example 105] | 5.3 µM | 166% | 5.3 µM | 257% | > 460 µL/min/1e6 cells | < 3 min | > 460 µL/min/1e6 cells | < 3 min | – | 4.2 µM | – | – | – | 2 µM | – | –
5 | C=C(Cc1nc(C(C)CCCCCC(F)(F)F)no1)C(=O)O (centres unmarked) [Example 54, 2-((3-(8,8,8-trifluorooctan-2-yl)-1,2,4-oxadiazol-5-yl)methyl)acrylic acid] | 42.4 µM | 50% | 44.6 µM | 115% | 13 µL/min/1e6 cells | 102 min | 5 µL/min/1e6 cells | 268 min | 19.1 µM | > 100 µM | – | – | – | – | – | not effective
6 | C=C(Cc1nc(-c2ccc(OCCCC)cc2)no1)C(=O)O [Example 61, 2-((3-(4-butoxyphenyl)-1,2,4-oxadiazol-5-yl)methyl)acrylic acid] | 4.9 µM | 124% | 3.2 µM | 198% | 301 µL/min/1e6 cells | 4 min | 52 µL/min/1e6 cells | 29 min | 3.1 µM | 13.9 µM | – | 3.2 µM | 198% | – | 13.9 µM | –
7 | C=C(Cc1nc(C2CC3(C2)CC2(CCC2)C3)no1)C(=O)O [Example 62, 2-((3-(dispiro[3.1.3^6.1^4]decan-2-yl)-1,2,4-oxadiazol-5-yl)methyl)acrylic acid] | 27.4 µM | 149% | 20 µM | 229% | 119 µL/min/1e6 cells | 10 min | 57 µL/min/1e6 cells | 26 min | 21.5 µM | 17.9 µM | – | – | – | – | – | –
8 | C=C(Cc1nc([C@@H](C)CCCCCC)no1)C(=O)O [Example 43, (S)-2-((3-(octan-2-yl)-1,2,4-oxadiazol-5-yl)methyl)acrylic acid] | 27.4 µM | 81% | 30.4 µM | 166% | 142 µL/min/1e6 cells | 12 min | 33 µL/min/1e6 cells | 42 min | 23.1 µM | 36.9 µM | – | – | – | – | – | –
9 | C=C(Cc1nc(C(C)CCCCCC)no1)C(=O)O (centres unmarked) [Example 8, 2-((3-(octan-2-yl)-1,2,4-oxadiazol-5-yl)methyl)acrylic acid] | 28.1 µM | 167% | 20.9 µM | 175% | 143 µL/min/1e6 cells | 10 min | 28 µL/min/1e6 cells | 51 min | 14 µM | 16.8 µM | – | – | – | – | – | –
10 | C=C(Cc1nc(CCCCCCCC)c(C)o1)C(=O)O [Example 107, 2-((5-methyl-4-octyloxazol-2-yl)methyl)acrylic acid] | – | – | – | – | > 460 µL/min/1e6 cells | < 3 min | 161 µL/min/1e6 cells | 8 min | – | 9.5 µM | – | – | – | 8.4 µM | – | –
11 | C=C(Cc1nc(C2(c3ccc(C(F)(F)F)c(Cl)c3)CC2)no1)C(=O)O [Example 136, 2-((3-(1-(3-chloro-4-(trifluoromethyl)phenyl)cyclopropyl)-1,2,4-oxadiazol-5-yl)methyl)acrylic acid] | – | – | – | – | 79 µL/min/1e6 cells | 16 min | 44 µL/min/1e6 cells | 32 min | – | 2.9 µM | – | – | – | 3.9 µM | – | –
12 | C=C(Cc1nc(C2(c3cc(Cl)cc(Cl)c3)CC2)no1)C(=O)O [Example 67, 2-((3-(1-(3,5-dichlorophenyl)cyclopropyl)-1,2,4-oxadiazol-5-yl)methyl)acrylic acid] | – | – | – | – | 92 µL/min/1e6 cells | 13 min | 70 µL/min/1e6 cells | 23 min | 4.1 µM | 69.4 µM | – | – | – | – | – | –
13 | C=C(Cc1nc(C2(c3ccc(OC(F)(F)C(F)F)cc3)CC2)no1)C(=O)O [Example 82, 2-((3-(1-(4-(1,1,2,2-tetrafluoroethoxy)phenyl)cyclopropyl)-1,2,4-oxadiazol-5-yl)methyl)acrylic acid] | – | – | – | – | 30 µL/min/1e6 cells | 58 min | < 3 µL/min/1e6 cells | > 460 min | 20.7 µM | 14.5 µM | – | – | – | – | – | –
14 | C=C(Cc1noc(C(F)(F)c2ccc(Cl)cc2)n1)C(=O)O [Example 84, 2-((5-((4-chlorophenyl)difluoromethyl)-1,2,4-oxadiazol-3-yl)methyl)acrylic acid] | – | – | – | – | 83 µL/min/1e6 cells | 21 min | 14 µL/min/1e6 cells | 115 min | – | 39 µM | – | – | – | 23.1 µM | – | –
15 | C=C(Cc1nc(Cc2ccc(OC(F)(F)C(F)F)cc2)no1)C(=O)O [Example 81, 2-((3-(4-(1,1,2,2-tetrafluoroethoxy)benzyl)-1,2,4-oxadiazol-5-yl)methyl)acrylic acid] | – | – | – | – | 94 µL/min/1e6 cells | 18 min | < 3 µL/min/1e6 cells | > 460 min | 12.8 µM | 22 µM | – | – | – | – | – | –
16 | C=C(Cc1nc(C2(c3cc(F)c(Cl)c(F)c3)CC2)no1)C(=O)O [Example 135, 2-((3-(1-(4-chloro-3,5-difluorophenyl)cyclopropyl)-1,2,4-oxadiazol-5-yl)methyl)acrylic acid] | – | – | – | – | 159 µL/min/1e6 cells | 8 min | 31 µL/min/1e6 cells | 45 min | – | 13.2 µM | – | – | – | 17.9 µM | – | –
